Test results: US12319655B2, “RAF kinase inhibitors and methods of use thereof” (Deciphera Pharmaceuticals, LLC, priority 2021, dated 2025)
pIC50: −log10 of the molar value.

What was measured:
[1] = target: A-Raf kinase (SEQ. ID No: 1) (Homo sapiens (Human), UniProt P10398, Y301D/Y302D); experiment: Biochemical Assay for A-Raf (1); settings: Table J, assay version (1); read-out: ARAF (1) IC50
In short: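 A-Raf Y301D/Y302D at 5.55 nM phosphorylates 30.1 nM MEK with 1 mM ATP in pH 7.5 Tris buffer, 1% DMSO. Activity was read continuously as NADH oxidation at 340 nm in a pyruvate kinase/lactate dehydrogenase coupled system for 6 h at 30 °C. Rates from 4–5 h were converted to percent inhibition, and IC50 came from a four-parameter fit.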

[2] = target: B-Raf (V600E) (SEQ. ID NO: 4) kinase (Homo sapiens (Human), UniProt P15056, V600E); experiment: Biochemical Assay for B-Raf (V600E) (1); settings: Table J, BRAF V600E, assay version (1); read-out: BRAF VE (1) IC50
In short: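 Coupled pyruvate kinase/lactate dehydrogenase assay: 0.03 nM B-Raf V600E, 30.1 nM MEK, 1 mM ATP, pH 7.5 Tris/MgCl2 buffer, 1% DMSO. NADH oxidation followed at 340 nm for 6 h at 30 °C; rate from 3–4 h converted to percent inhibition, IC50 by four-parameter fit.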

[3] = test system: Miapaca-2 cells; experiment: MiaPaca-2 Cell Proliferation Assay (1); type: cell-based; settings: Homo sapiens, MIA PaCa-2, single agent, read-out: MiaPaca2 (1) IC50
In short: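 Resazurin was added after compound exposure and incubated 5-6 h, then fluorescence read at 540 nm excitation and 600 nm emission to give IC50.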

[4] = test system: WM3928 cells; experiment: WM3928 Cell Proliferation Assay (1); type: cell-based
In short: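 IC50 was derived from resazurin fluorescence (ex 540, em 600 nm) after a 6–7 h dye incubation. Before that, cells had 67–72 h of compound exposure at 37 °C, 5% CO2.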

Chain of A-Raf kinase (SEQ. ID No: 1) (P10398 other isoform, or with tags, fused parts or gaps Y301D (already in the parent)/Y302D (already in the parent)): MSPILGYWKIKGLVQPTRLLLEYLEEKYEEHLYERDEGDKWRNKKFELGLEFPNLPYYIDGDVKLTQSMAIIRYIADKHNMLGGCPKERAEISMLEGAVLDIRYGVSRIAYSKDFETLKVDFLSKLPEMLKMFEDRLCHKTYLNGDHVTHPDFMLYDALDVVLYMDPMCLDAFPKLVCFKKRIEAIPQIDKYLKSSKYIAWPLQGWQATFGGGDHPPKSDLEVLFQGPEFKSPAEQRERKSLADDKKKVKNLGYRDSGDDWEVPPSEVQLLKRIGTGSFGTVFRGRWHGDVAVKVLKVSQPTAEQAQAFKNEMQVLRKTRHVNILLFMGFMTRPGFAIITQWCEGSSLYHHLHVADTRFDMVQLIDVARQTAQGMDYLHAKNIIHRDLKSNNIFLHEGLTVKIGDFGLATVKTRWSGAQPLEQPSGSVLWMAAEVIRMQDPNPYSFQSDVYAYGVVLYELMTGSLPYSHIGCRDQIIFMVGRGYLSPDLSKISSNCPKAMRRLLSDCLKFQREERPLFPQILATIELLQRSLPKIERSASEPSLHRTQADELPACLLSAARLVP
Chain of B-Raf (V600E) (SEQ. ID NO: 4) kinase (P15056 416-766 V600E): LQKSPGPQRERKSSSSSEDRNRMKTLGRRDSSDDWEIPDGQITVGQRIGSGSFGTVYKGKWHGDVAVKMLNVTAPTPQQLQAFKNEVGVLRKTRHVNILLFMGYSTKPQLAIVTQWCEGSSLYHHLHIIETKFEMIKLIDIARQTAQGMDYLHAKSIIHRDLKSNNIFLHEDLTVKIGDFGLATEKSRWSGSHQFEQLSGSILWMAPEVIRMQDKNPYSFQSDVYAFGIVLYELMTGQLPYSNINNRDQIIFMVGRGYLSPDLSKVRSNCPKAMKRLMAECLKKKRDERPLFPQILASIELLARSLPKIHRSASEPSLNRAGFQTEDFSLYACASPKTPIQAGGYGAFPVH

| pIC50 [1] | pIC50 [2] | pIC50 [3] | Compound | pIC50 [4] |
| --- | --- | --- | --- | --- |
| 5.00 to 6.00 | ≥ 7.00 | 5.00 to 6.00 | COC(C)(C)c1cc(C(=O)Nc2cnc(C)c(-c3cccc(-c4cc(NC(=O)C5CC5)ncn4)c3)c2)ccn1 [Example 274] | ≥ 7.00 |
| 5.00 to 6.00 | ≥ 7.00 | 5.00 to 6.00 | Cc1ncc(NC(=O)c2cnnc(C3CC3)c2)cc1-c1ccnc(-c2ccnc(NC(=O)C3CC3)c2)n1 [Example 278] | 5.00 to 6.00 |
| 5.00 to 6.00 | ≥ 7.00 | 5.00 to 6.00 | Cc1ncc(NC(=O)c2cnn(C(C)(C)C)c2)cc1-c1cccc(-c2cc(NC(=O)C3CC3)ncn2)c1 [Example 279] | ≥ 7.00 |
